Data from patent US8476012B2, “Physiogenomic method for predicting metabolic and cardiovascular side effects of thiazolidinediones” (Genomas, Inc., priority 2008, dated 2013).

Legend:
[1] = HbA1c level (efficacy indicator) in type 2 diabetes outpatients on thiazolidinedione therapy; type: in vivo, human; settings: average by covariate; type 2 diabetes outpatients treated ≧4 months; from most recent medical records
Description: (§1) Outpatients with type 2 diabetes treated between February and June 2007 with rosiglitazone ([…]) or pioglitazone (n=33) for ≧4 months at the Joslin Diabetes Center affiliate of The Hospital of Central Connecticut (THOCC) in New Britain, Conn. were recruited as volunteer subjects. There were no exclusionary criteria. Each subject provided informed written consent as approved by the THOCC Institutional Review Board.
Hemoglobin A1c: HbA1c levels were measured via ion exchange using the HPLC Variant II (BioRad Laboratories, Hercules Calif.).
(§2) Physiogenomic Analysis. Patients treated with rosiglitazone or pioglitazone were recruited from THOCC clinics and provided informed written consent as approved by the THOCC Institutional Review Board. For physiogenomic associations to HbA1c, body mass index and edema, genotype data were obtained on 88 patients, 55 on rosiglitazone and 33 on pioglitazone regimens. A standardized set of phenotypes were collected from the most recent medical records for each patient. Valid genotype data were obtained on the 88 patients. Extensive information on co-medications and disease history were also collected to control for environmental effects.
(§3) HbA1c was selected as an indicator for efficacy, and body mass index and edema as indicators of undesired side effect. […] The phenotypes were analyzed for covariate dependence on age, gender, ethnicity, and treatment.

[2] = parameters: species or system human; settings: in vivo
Text: as §1
Clinical Assessment. Patient characteristics included age, height, weight, body mass index, and the presence/absence of edema as recorded by a physician.
as §2, with “Extensive information on co-medications and disease history were also collected to control for environmental effects.” left out
as §3

[3] = suggested by various meta analyses; since disputed; cited from earlier work

For CCc1ccc(CCOc2ccc(CC3SC(=O)NC3=O)cc2)nc1 (stereo not drawn) [pioglitazone], which HbA1c [1] is on record?
The HbA1c was 7.4%.

And the BMI [2]?
Its BMI is 33.4.

And the “risk for myocardial infarction (MI)” value [3]?
Its value is “does not”.

Which HbA1c [1] does the source give for CN(CCOc1ccc(CC2SC(=O)NC2=O)cc1)c1ccccn1 (stereo not drawn) [rosiglitazone] here?
Its HbA1c is 7.4%.

What about the BMI [2] of the same compound?
The BMI was 33.7.

What about the “risk for myocardial infarction (MI)” value [3] of the same compound?
The value was “may increase the risk for myocardial infarction”.
